Assay results reported in ChEMBL document CHEMBL5230089, “Small-Molecule Fms-like Tyrosine Kinase 3 Inhibitors: An Attractive and Efficient Method for the Treatment of Acute Myeloid Leukemia” (J Med Chem, 2020).
Each block holds one compound with its values, some of them ahead of it.

Columns and labels:
MOLM-13 [1] = assay: cells; conditions: Homo sapiens, MOLM-13, 72 h
BaF3 [2] = assay: cells; conditions: Mus musculus, BaF3, 72 h
MOLM-14 [3] = assay: cells; conditions: Homo sapiens, MOLM-14, 72 h
MOLM-13 [4] = assay: cells; conditions: Homo sapiens, MOLM-13, 72 h; remark: listed apart in the source
Description: Cytotoxicity against human MOLM-13 cells assessed as reduction in cell viability incubated for 72 hrs

[5] = biological target: T1, Receptor-type tyrosine-protein kinase FLT3 (Homo sapiens, UniProt P36888, ITD)
MV4-11 [6] = assay: cells; conditions: Homo sapiens, MV4-11, 48 h
Description: Antiproliferative activity against human MV4-11 cells assessed as reduction in cell viability after 48 hrs by Alamar Blue assay

MV4-11 [7] = assay: Antiproliferative activity against human MV4-11 cells assessed as cell growth inhibition measured after 48 hrs by cell titer glo assay; format: functional, cell-based; conditions: MV4-11, 48 h
[8] = biological target: T2, Receptor-type tyrosine-protein kinase FLT3 (Homo sapiens, UniProt P36888); assay: Inhibition of FLT3 (unknown origin) by ADP-Glo kinase assay
T2 sequence (P36888 whole entry): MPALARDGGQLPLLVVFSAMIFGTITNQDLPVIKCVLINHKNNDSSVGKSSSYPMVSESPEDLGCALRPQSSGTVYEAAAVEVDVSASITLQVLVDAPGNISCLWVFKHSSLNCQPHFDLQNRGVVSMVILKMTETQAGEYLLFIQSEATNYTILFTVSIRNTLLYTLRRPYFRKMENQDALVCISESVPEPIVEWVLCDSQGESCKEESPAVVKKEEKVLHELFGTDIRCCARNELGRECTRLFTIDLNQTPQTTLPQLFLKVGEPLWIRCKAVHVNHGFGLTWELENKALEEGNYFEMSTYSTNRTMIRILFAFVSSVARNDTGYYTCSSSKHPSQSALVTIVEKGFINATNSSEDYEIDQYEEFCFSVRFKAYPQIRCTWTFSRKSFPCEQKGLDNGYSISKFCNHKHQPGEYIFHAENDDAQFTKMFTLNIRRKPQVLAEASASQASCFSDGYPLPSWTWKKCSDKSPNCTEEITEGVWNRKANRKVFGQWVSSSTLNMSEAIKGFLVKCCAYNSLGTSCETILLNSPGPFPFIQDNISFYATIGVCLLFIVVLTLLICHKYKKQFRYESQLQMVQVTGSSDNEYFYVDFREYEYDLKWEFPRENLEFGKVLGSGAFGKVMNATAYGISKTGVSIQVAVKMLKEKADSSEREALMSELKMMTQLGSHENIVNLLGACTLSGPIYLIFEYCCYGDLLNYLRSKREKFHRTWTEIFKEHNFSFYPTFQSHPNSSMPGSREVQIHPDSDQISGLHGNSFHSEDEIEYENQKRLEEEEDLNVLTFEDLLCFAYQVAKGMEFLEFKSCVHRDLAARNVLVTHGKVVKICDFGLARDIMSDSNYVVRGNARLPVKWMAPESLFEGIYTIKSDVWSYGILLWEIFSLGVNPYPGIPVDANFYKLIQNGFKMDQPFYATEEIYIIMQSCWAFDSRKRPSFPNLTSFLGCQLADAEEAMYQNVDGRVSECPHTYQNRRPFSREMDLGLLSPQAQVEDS

[9] = biological target: T1, Receptor-type tyrosine-protein kinase FLT3; assay: Inhibition of FLT3-ITD mutant (unknown origin) expressed in mouse BaF3 cells assessed as inhibition; format: cell-based
MOLM-13 [10] = assay: Antiproliferative activity against human MOLM-13 cells assessed as reduction in cell viability measured after 48 hrs by MTT assay; format: functional, cell-based; conditions: MOLM-13, 48 h
[11] = system: Receptor-type tyrosine-protein kinase FLT3 (Homo sapiens), P36888 [UNDEFINED MUTATION]
[12] = Antiproliferative activity against human MOLM16 cells expressing FLT3-ITD mutant assessed as inhibition of cell proliferation measured after 72 hrs by celltiter-glo luminescent cell viability assay; format: functional, cell-based, MOLM-16; conditions: MOLM16, 72 h
MV4-11 [13] = assay: Antiproliferative activity against human MV4-11 cells assessed as reduction in cell proliferation measured after 24 hrs by MTT assay; format: functional, cell-based; conditions: MV4-11, 24 h
[14] = biological target: T3, Receptor-type tyrosine-protein kinase FLT3 (Homo sapiens, UniProt P36888, D835Y); assay: Inhibition of FLT3-D835Y mutant phosphorylation in human MOLM-14 cell incubated for 2 hrs; format: cell-based
MOLM-14 [15] = assay: Antiproliferative activity against human MOLM-14 cells assessed as cell growth inhibition measured after 72 hrs by cell titer-Blue assay; format: functional, cell-based; conditions: MOLM-14, 72 h
[16] = biological target: T1, Receptor-type tyrosine-protein kinase FLT3; assay: Inhibition of FLT3-ITD mutant phosphorylation in human MOLM-14 cell incubated for 2 hrs; format: cell-based
MV4-11 [17] = assay: Antiproliferative activity against human MV4-11 cells assessed as cell growth inhibition measured after 72 hrs by cell titer-Blue assay; format: functional, cell-based; conditions: MV4-11, 72 h
Aurora kinase A [18] = biological target: T4, Aurora kinase A (Homo sapiens, UniProt O14965); assay: Inhibition of Aurora-A (unknown origin)
T4 sequence (O14965 whole entry): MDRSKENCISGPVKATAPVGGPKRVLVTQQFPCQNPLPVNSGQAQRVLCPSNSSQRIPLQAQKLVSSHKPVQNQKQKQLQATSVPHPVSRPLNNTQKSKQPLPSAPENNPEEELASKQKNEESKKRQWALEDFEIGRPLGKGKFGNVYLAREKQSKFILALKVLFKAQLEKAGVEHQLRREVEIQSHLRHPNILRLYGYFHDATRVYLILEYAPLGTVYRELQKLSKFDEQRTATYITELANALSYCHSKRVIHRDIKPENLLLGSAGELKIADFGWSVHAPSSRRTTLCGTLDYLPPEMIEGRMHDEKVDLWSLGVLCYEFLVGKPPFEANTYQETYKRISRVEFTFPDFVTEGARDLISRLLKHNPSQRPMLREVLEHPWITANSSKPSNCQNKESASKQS

[19] = biological target: Tyrosine-protein kinase JAK2 (Homo sapiens, UniProt O60674); assay: Inhibition of JAK2 (unknown origin) in presence of ATP
MV4-11 [20] = assay: cells; conditions: Homo sapiens, MV4-11, 72 h
Description: Cytotoxicity against human MV4-11 cells assessed as cell viability incubated for 72 hrs by Cell titer-blue assay

BaF3 [21] = assay: cells; conditions: Mus musculus, BaF3, 72 h; remark: listed apart in the source
MOLM-14 [22] = assay: Cytotoxicity against human MOLM-14 cells assessed as reduction in cell viability incubated for 72 hrs; format: functional, cell-based; conditions: MOLM-14, 72 h
MOLM-13 [23] = assay: Cytotoxicity against human MOLM-13 cells assessed as cell viability incubated for 72 hrs by Cell titer-blue assay; format: functional, cell-based; conditions: MOLM-13, 72 h
Aurora kinase A [24] = biological target: T4, Aurora kinase A; assay: Inhibition of Aurora-A (unknown origin) by kinase-glo luminescent assay
[25] = biological target: T2, Receptor-type tyrosine-protein kinase FLT3; assay: Inhibition of FLT3 (unknown origin)
MV4-11 [26] = assay: Growth inhibition of human MV4-11 cells assessed as reduction in cell viability at 50 uM measured after 72 hrs by CCK8 assay; format: functional
RS4-11 = assay: Growth inhibition human RS4-11 cell assessed as reduction in cell viability at 50 uM measured after 72 hrs by CCK8 assay; format: functional
MV4-11 [27] = assay: Growth inhibition of human MV4-11 cells incubated for 72 hrs by CCK-8 assay; format: functional
HL-60 = assay: Growth inhibition of human HL-60 cells incubated for 4 days by WST assay; format: functional; conditions: HL-60, 96 h, time 4 day
[28] = biological target: T3, Receptor-type tyrosine-protein kinase FLT3; assay: Inhibition of FLT3-D835Y mutant (unknown origin)

Chain of Tyrosine-protein kinase JAK2 (O60674 whole entry): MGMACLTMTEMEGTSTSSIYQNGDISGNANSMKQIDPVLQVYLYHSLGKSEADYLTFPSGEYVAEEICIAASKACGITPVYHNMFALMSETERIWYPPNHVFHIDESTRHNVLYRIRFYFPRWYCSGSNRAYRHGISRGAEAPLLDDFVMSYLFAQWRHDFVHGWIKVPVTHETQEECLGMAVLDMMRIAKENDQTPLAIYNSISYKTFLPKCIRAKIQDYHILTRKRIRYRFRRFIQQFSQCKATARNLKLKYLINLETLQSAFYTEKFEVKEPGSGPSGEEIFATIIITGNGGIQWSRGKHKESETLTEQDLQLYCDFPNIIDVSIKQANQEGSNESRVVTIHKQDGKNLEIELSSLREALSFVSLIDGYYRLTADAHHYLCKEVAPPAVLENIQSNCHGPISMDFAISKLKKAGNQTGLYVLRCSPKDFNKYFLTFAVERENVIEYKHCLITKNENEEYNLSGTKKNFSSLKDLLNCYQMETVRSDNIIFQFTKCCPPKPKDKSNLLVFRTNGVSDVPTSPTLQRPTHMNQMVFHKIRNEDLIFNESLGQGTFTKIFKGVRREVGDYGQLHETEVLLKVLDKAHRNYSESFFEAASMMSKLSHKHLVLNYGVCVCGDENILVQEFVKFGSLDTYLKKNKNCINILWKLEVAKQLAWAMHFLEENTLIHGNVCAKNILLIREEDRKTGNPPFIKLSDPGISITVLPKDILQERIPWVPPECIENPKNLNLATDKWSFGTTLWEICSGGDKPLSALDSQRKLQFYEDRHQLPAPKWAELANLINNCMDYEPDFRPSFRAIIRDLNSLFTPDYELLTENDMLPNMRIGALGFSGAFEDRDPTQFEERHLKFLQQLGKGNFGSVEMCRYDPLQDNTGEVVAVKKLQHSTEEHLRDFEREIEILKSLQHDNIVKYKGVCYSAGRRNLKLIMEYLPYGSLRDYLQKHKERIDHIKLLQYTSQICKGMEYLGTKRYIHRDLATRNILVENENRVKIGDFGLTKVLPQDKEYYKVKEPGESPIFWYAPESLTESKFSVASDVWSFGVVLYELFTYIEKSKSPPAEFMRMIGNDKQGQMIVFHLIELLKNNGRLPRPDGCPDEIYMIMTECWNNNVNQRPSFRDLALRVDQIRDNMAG

SMILES: COc1cc2c(N3CCN(C(=O)Nc4ccc(OC(C)C)cc4)CC3)ncnc2cc1OCCCN1CCCCC1 [TANDUTINIB]
IC50 (MOLM-13 [1]): 10 nM
IC50 (BaF3 [2]): 10 nM
IC50 (MOLM-14 [3]): 10 nM

SMILES: COc1cc(Nc2nc3cccc(-c4cccc(C(N)=O)c4)c3o2)ccc1N1CCNCC1
IC50 (MV4-11 [7]): 37 nM
IC50 [5]: 0.41 nM

SMILES: Cc1cc2ncc(-c3ccccc3)nc2cc1C [AG1295]
IC5 [11]: 32 nM
IC50 (MV4-11 [6]): 2200 nM

SMILES: C[C@]12O[C@H](C[C@H](O)[C@H]1O)n1c3ccccc3c3c4c(c5c6ccccc6n2c5c31)C(=O)NC4=O
IC50 (MOLM-13 [1]): 13 nM
IC50 [12]: 27 nM
IC50 (MV4-11 [13]): 12.3 nM

SMILES: CC(C)(C)c1cc(NC(=O)Nc2ncc(CCNc3ncnc4[nH]c(-c5ccccc5)cc34)s2)no1
IC50 (MOLM-13 [4]): 7 nM
IC50 (Aurora kinase A [18]): 15 nM
IC50 [5]: 67 nM
IC50 (MV4-11 [6]): 7 nM

SMILES: Cn1c2ccccc2c2c3c(c4c5ccccc5n(CCC#N)c4c21)CNC3=O [GO-6976]
IC50 [19]: 67.2 nM

SMILES: CC1(COc2ccc3c(c2)ncn3-c2ccc3cccc(N4CCC(N)CC4)c3n2)COC1 [CRENOLANIB]
IC50 (MOLM-13 [1]): 2 nM
IC50 (MOLM-14 [3]): 2 nM
IC50 (MV4-11 [20]): 0.92 nM
IC50 (MOLM-13 [4]): 4.9 nM
IC50 (BaF3 [21]): 1.3 nM
IC50 (MOLM-14 [22]): 2 nM
IC50 (MV4-11 [6]): 1.3 nM
IC50 (MOLM-13 [23]): 2.9 nM

More lines, now with the values ahead:

IC50 (MOLM-13 [4]): 23.6 nM
IC50 [5]: 5.3 nM
IC50 (MV4-11 [6]): 24.8 nM
SMILES: Cc1[nH]c(/C=C2\C(=O)Nc3ccc(F)cc32)c(C)c1NC(=O)[C@@H]1CCCN1

IC50 [8]: 9 nM
IC50 [9]: 1.1 nM
IC50 (MOLM-13 [10]): 0.24 nM
SMILES: COc1cc2c(Oc3ccc(NC(=O)Nc4cccc(C)c4)cc3F)ccnc2cc1OCCCN1CCOCC1

IC50 [14]: 16.6 nM
IC50 (MOLM-14 [15]): 0.5 nM
IC50 [16]: 0.5 nM
IC50 (MV4-11 [17]): 0.5 nM
SMILES: Cc1ncc(C(=O)Nc2ccc(CN3CCN(C)CC3)c(C(F)(F)F)c2)cc1C#Cc1c(N)ncc2ccc(F)cc12

IC50 [5]: 0.5 nM
IC50 (Aurora kinase A [24]): 0.4 nM
SMILES: COc1ccc(C(=O)NC(=O)Nc2ccc3c(c2)NC(=O)/C3=C\c2[nH]c(C)c(C(=O)NCCN3CCCC3)c2C)c(F)c1

IC50 [25]: 2.7 nM
GI50 (MV4-11 [26]): 110 nM
GI50 (RS4-11): 6300 nM
SMILES: O=C(c1ccncc1)N1CCc2nc(-c3cc4cc(F)ccc4[nH]c3=O)[nH]c2C1

GI50 (MV4-11 [27]): 216 nM
GI50 (HL-60): > 10000 nM
IC50 [5]: 16 nM
IC50 [28]: 21 nM
SMILES: CC1=CC(=O)N(Nc2nc(-c3cccs3)nc3sc(C)c(C)c23)C1=O
